# System: skin
# Conditions: application to skin; 0.3% (m/m) histamine dihydrochloride solution used
compound,measurement,value
"Cl.Cl.NCCc1c[nH]cn1 [histamine solution droplet, Histamine dihydrochloride]","skin reaction (swelling, reddening, itchy feeling)",No effect

# Source: US20200316208A1, “MECHANICAL PROCESSING OF BIOPOLYMERS” (SolyPlus Berlin GmbH, priority 2017, published 2020)
